These results are taken from ChEMBL document CHEMBL1146608, “Design and synthesis of pseudo-symmetric HIV protease inhibitors containing a novel hydroxymethylcarbonyl (HMC)-hydrazide isostere” (Bioorg Med Chem Lett, 2003).

For experiment [1], the target named is Human immunodeficiency virus type 1 protease (Human immunodeficiency virus 1, UniProt Q72874). Kind of experiment: Inhibitory activity against HIV-1 protease.
The subject of experiment [2] is MT4. Put plainly: Cytotoxic effect against HIV-IIIB strain in MT-4 cells. Format: functional. The conditions noted are these: Homo sapiens, read-out: TD50 (the source's name).
Experiment [3] concerns MT4. Kind of experiment: Inhibitory concentration against HIV-IIIB strain in MT-4 cells. To be noted: Homo sapiens. Format: functional, cell-based.
The nature of experiment [4]: Selectivity index expressed as ratio of TD50 to EC50. Format: functional.

Molecules are shown by their SMILES.

As a reminder, the Ki is the dissociation constant of the complex between target and ligand, obtained from inhibition or displacement. Read a high Ki as weaker binding. Usually EC50 stands for the concentration giving half of the maximal effect. Low values mean greater potency, high ones weaker potency. In experiment [1], `Cc1cccc(C)c1OCC(=O)NN(Cc1ccccc1)C(=O)[C@@H](O)[C@H](Cc1ccccc1)NC(=O)c1cccc(O)c1C` returned an inhibition constant Ki of 5.8 nM. Further, the CC50 with MT4 [2] stood at 12 nM. In addition, the EC50 in the experiment with MT4 [3] came to 1.8 nM. Also, the Therapeutic index in experiment [4] amounted to 6.7.

As for `Cc1cc(N)cc(C)c1OCC(=O)N[C@@H](Cc1ccccc1)[C@H](O)C(=O)N(Cc1ccccc1)NC(=O)c1cccc(O)c1C`, the affinity in experiment [1], expressed as Ki, was 5 nM. For the same compound, the CC50 with MT4 [2] turned out to be 35 nM. For the same compound, the EC50 in the experiment on MT4 [3] is 0.48 nM. Also, the Therapeutic index in experiment [4] turned out to be 73.

In experiment [1], `Cc1c(O)cccc1C(=O)N[C@@H](Cc1ccccc1)[C@@H](O)C(=O)N(Cc1ccccc1)NC(=O)c1cccc(O)c1C` came in with an inhibition constant (Ki) of 0.16 nM. The CC50 in the experiment with MT4 [2] worked out at 91 nM. This compound displayed a concentration for a half-maximal effect (EC50) with MT4 [3] of 1.6 nM. In addition, the Therapeutic index in experiment [4] was 57.

`Cc1cccc(C)c1OCC(=O)N[C@@H](Cc1ccccc1)[C@H](O)C(=O)N(Cc1ccccc1)NC(=O)c1cccc(O)c1C` displayed an inhibition constant (Ki) in experiment [1] of 3 nM. Further, the CC50 in the experiment with MT4 [2] stood at 12 nM. In the experiment on MT4 [3], this compound gave an EC50 of 1.1 nM. Besides, the Therapeutic index in experiment [4] was 11.

In the case of `CSC[C@H](NC(=O)OCc1cccc2cnccc12)C(=O)N[C@@H](Cc1ccccc1)[C@H](O)C(=O)N(Cc1ccccc1)NC(=O)COc1c(C)cccc1C`, the Ki in experiment [1] is 0.25 nM. Besides, in the experiment on MT4 [2], the CC50 was more than 100 nM. Moreover, in the experiment on MT4 [3], the EC50 stood at 1.9 nM. In addition, the Therapeutic index in experiment [4] is more than 53.

On to `CSC[C@H](NC(=O)OCc1cccc2cnccc12)C(=O)N[C@@H](Cc1ccccc1)[C@H](O)C(=O)N(Cc1ccccc1)NC(=O)c1cccc(O)c1C`, for which the Ki in experiment [1] worked out at 0.47 nM. In the experiment on MT4 [2], the CC50 worked out at 23 nM. For the same compound, in the experiment with MT4 [3], it took 0.4 nM to reach a half-maximal effect (EC50). Also, the Therapeutic index in experiment [4] worked out at 58.

`Cc1c(O)cccc1C(=O)N[C@@H](Cc1ccccc1)[C@H](O)C(=O)N(Cc1ccccc1)NC(=O)c1cccc(O)c1C` had an inhibition constant Ki in experiment [1] of 15 nM. In addition, in the experiment on MT4 [2], the CC50 is 73 nM. This compound returned an EC50 in the experiment on MT4 [3] of 1.1 nM. Also, in experiment [4], the Therapeutic index turned out to be 66.
